According to paper PMC6864762, “Angiotensin-I-Converting Enzyme Inhibitory Activity of Coumarins from Angelica decursiva” (Molecules, 2019):

Columns and labels:
[1] = tested on: ACE; parameters: method as in earlier work; settings: ref 25 (Hyun et al.); cited from earlier work
[2] = molecular target: T1, ACE (Oryctolagus cuniculus, UniProt P12822); assay: ACE inhibitory activity assay with FAPGG as substrate; settings: for Inhibitory effect on ACE (in words): structure–activity discussion of Table 2
T1 sequence (P12822 34-1310): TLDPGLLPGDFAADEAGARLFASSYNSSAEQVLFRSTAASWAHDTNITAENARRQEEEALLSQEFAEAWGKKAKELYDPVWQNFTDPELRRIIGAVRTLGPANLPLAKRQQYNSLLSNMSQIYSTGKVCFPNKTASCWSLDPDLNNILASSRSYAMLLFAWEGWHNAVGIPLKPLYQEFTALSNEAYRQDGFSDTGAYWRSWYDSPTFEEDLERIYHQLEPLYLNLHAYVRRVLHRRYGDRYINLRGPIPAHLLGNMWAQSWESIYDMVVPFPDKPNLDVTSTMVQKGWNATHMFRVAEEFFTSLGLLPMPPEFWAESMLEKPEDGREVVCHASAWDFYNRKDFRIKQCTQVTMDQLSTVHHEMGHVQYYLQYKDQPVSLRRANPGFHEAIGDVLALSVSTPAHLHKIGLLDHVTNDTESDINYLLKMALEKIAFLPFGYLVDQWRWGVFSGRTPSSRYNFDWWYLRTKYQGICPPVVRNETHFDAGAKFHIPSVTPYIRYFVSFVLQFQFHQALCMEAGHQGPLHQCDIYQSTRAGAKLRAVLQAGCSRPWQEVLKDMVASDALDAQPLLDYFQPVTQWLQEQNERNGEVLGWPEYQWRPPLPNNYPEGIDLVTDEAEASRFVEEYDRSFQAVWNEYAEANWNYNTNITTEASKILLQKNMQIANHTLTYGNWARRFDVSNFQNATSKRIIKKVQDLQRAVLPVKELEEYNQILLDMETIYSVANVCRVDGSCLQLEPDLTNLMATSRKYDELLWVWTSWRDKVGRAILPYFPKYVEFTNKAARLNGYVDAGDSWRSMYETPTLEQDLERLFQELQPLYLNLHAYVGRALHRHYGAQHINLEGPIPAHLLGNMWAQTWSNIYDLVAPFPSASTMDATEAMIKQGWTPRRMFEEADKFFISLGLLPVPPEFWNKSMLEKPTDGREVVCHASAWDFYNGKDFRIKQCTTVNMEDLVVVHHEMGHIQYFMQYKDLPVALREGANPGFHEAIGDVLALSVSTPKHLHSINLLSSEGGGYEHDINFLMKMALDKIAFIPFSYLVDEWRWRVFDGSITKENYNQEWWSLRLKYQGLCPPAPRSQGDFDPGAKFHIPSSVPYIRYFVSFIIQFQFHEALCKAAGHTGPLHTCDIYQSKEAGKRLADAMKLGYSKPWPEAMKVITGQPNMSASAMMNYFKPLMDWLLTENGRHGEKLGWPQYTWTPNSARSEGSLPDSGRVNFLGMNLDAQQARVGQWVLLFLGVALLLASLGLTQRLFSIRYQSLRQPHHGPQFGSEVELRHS
Procedure: The ACE inhibitory activity of 18 compounds was conducted according to Hyun et al. [8] and modified to use FAPGG as the substrate. In brief, FAPGG (0.5 mM) and various concentrations of the samples were completely dissolved in 50 mM Tris–HCl buffer (pH 7.5).

[3] = molecular target: T1, ACE; assay: Enzyme kinetics of ACE inhibition (Lineweaver–Burk and secondary plots); format: biochemical, rabbit; parameters: ACE (1 Unit, rabbit lung); purchased Sigma Chemical Company (St Louis, MO, USA); host or cells: rabbit lung (tissue-derived); settings: for Type of Inhibition: Lineweaver–Burk plot and secondary plot, FAPGG 0.1–0.5 mM; for Ki: from secondary plot of slope (Km,app/Vmax,app) versus inhibitor
Procedure: All chemicals and solvents used for column chromatography were of reagent grade and purchased from commercial sources, unless otherwise stated.
To determine the inhibition mechanisms, ACE inhibition was evaluated by monitoring the effects of different concentrations of substrate […]. The reaction mixture consisted of different concentrations of FAPGG (0.1–0.5 mM), as the substrate, and ACE in 50 mM Tris–HCl buffer. Several concentrations of each sample were added to the reaction mixture. The tested concentrations of coumarins are as follows: 12 (0, 2.5, 5, and 10 µM); 13 (0, 2.5, 5, and 10 µM); 15 (0, 1.28, 2.56, and 5.12 µM). Inhibition constants (Ki) were determined by interpretation of the secondary plots from Lineweaver–Burk plot.

Structure (SMILES) | IC50 [2] [µM] | other results
CC(C)(O[C@@H]1O[C@H](CO)[C@@H](O)[C@H](O)[C@H]1O)[C@H]1Cc2cc3ccc(=O)oc3cc2O1 [Compound 1, nodakenin] | 112.5 ± 0.71 | ACE inhibitory activity (in words) [1]: promising ACE inhibitory activity
CC(C)(O)[C@H]1Cc2cc3ccc(=O)oc3cc2O1 [Compound 2, nodakenetin] | 102.3 ± 0.29 | 
CC(C)(OC1OC(CO)C(O)C(O)C1O)C1Cc2cc3ccc(=O)oc3c(O)c2O1 (stereo not drawn) [Compound 3, isorutarine] | 68.36 ± 0.27 | 
O=c1ccc2ccc(O)cc2o1 [Compound 4, umbelliferone] |  | ACE inhibitory activity (in words) [1]: promising ACE inhibitory activity
O=C(O)c1cc2ccc(=O)oc2cc1O [Compound 5, umbelliferone 6-carboxylic acid] | 156.1 ± 0.41 | ACE inhibitory activity (in words) [1]: promising ACE inhibitory activity; Inhibitory effect on ACE (in words) [2]: moderate inhibitory effects
O=C(O)c1ccc(O)cc1 [Compound 6, para-hydroxy benzoic acid] | 492.4 ± 0.89 | 
CC(C)c1cc2cc3ccc(=O)oc3cc2o1 [Compound 8, 2′-isopropyl psoralene] | 311.1 ± 0.33 | Inhibitory effect on ACE (in words) [2]: weak activity
C/C=C(\C)C(=O)O[C@@H]1c2c(ccc3ccc(=O)oc23)OC(C)(C)[C@@H]1OC(C)=O [Compound 9, 3′(R)-O-acetyl-4′(S)-O-tigloylkhellactone] | 89.36 ± 0.38 | 
C/C=C(/C)C(=O)O[C@@H]1c2c(ccc3ccc(=O)oc23)OC(C)(C)[C@@H]1OC(C)=O [Compound 10, cis-3′-acetyl-4′-angeloylkhellactone] | 71.48 ± 0.47 | 
CC1(C)Oc2cc3oc(=O)ccc3cc2C[C@@H]1O [Compound 11, decursinol] | 18.3 ± 0.61 | 
C/C=C(/C)C(=O)O[C@H]1[C@H](O)c2cc3ccc(=O)oc3cc2OC1(C)C [Compound 12, 4′-hydroxy Pd-C-III] | 9.41 ± 0.69 | Type of Inhibition [3]: competitive inhibition; Ki [3]: 1.98 µM
CC(C)=CC(=O)O[C@H]1[C@H](O)c2cc3ccc(=O)oc3cc2OC1(C)C [Compound 13, Pd-C-I] | 6.75 ± 0.43 | Type of Inhibition [3]: competitive inhibition; Ki [3]: 2.35 µM
CC(C)=CC(=O)O[C@@H]1c2cc3ccc(=O)oc3cc2OC(C)(C)[C@H]1OC(=O)C=C(C)C [Compound 14, decursidin] | 20 ± 0.79 | 
CC1(C)Oc2cc3oc(=O)ccc3cc2[C@@H](O)[C@@H]1O [Compound 15, (+)-trans-decursidinol] | 4.68 ± 0.22 | Type of Inhibition [3]: competitive inhibition; Ki [3]: 0.59 µM
CC(C)=CC(=O)O[C@@H]1c2cc3ccc(=O)oc3cc2OC(C)(C)[C@H]1O [Compound 16, Pd-C-II] | 12.4 ± 0.27 | 
C/C=C(/C)C(=O)O[C@H]1[C@H](OC(C)=O)c2cc3ccc(=O)oc3cc2OC1(C)C [Compound 17, Pd-C-III] | 15.2 ± 0.39 | 
CO[C@@H]1c2cc3ccc(=O)oc3cc2OC(C)(C)[C@H]1OC(=O)C=C(C)C [Compound 18, 4′-methoxy Pd-C-I] | 16 ± 0.92 | 
